Patent US20100048630A1, “METHODS FOR TREATING CNS DISORDERS” (priority 2008, published 2010)

Assays:
Male NMRI mice [1] = assay: Spontaneous locomotor activity (four-channel activity monitor); assay type: in vivo; settings: doses of 5 and 10 mg/kg
Description: (§1) Male NMRI mice weighing 24-26 g were used. The animals were kept in polycarbonate cages in a thermostatically controlled room at 24±2° C. and at a relative humidity (RH) of 50±10%. The room was artificially illuminated from 6 am to 6 pm and the mice were given commercial pellet rat-mouse feed, autoclaved at 105° C. and sterile filtered tap water, ad libitum.
(§2) An aqueous solution of radiprodil, in the form of a complex with heptakis(2,6-di-O-methyl)-β-cyclodextrin (DIMEB), was administered orally at doses of 2.5, 5 and 10 mg/kg (calculated for non-complexed radiprodil). […]
Spontaneous locomotor activity was measured in a four-channel activity monitor manufactured by Farmakotechnika (Hungary). […] The photocell beam, when broken, signaled a count, which was then recorded by a computer.
Each group consisted of 10 animals. […] The horizontal and vertical movements were determined as the number of beam interruptions collected in 15 minute intervals throughout the 1 hour period.
In the spontaneous locomotor activity test, the mean (±s.e.m) value of one hour horizontal activity data (in counts) of each group was calculated.
(§3) The significance of the drug effect was determined by ANOVA followed by post-hoc Duncan-test. The percentage change in the horizontal activity, immobility or “FST-activity” variables were calculated for each dose according to the equation; […]

Male NMRI mice [2] = assay: Forced swimming test (FST); assay type: in vivo; settings: doses of 5 and 10 mg/kg; may be a false positive from nonspecific stimulatory effect
Description: as §1, §2
The forced swimming test (FST) was measured in glass cylinders (height: […], diameter 14 cm) containing 12 cm of water, maintained at 23-25° C. […] The duration of immobility was recorded using a stopwatch. […]
In the forced swimming test, the mean±standard error on the mean (s.e.m) immobility time in seconds was measured. […] The mean (±s.e.m) “FST-activity” value was also calculated for each group and submitted to the same data analysis process as the immobility data.
as §3

## O=C(Nc1ccc2[nH]c(=O)oc2c1)C(=O)N1CCC(Cc2ccc(F)cc2)CC1 [radiprodil, 2-[4-(4-fluoro-benzyl)-piperidine-1-yl]-2-oxo-N-(2-oxo-2,3-dihydro-benzoxazol-6-yl)acetamide]
Male NMRI mice [1]
  effect on spontaneous motor activity of the mice: stimulated
Male NMRI mice [2]
  effect in the forced swimming test: significant effects
